“Also recorded” adds a separate entry of the source.
What was measured:
[1] = target: T1, TARS (Homo sapiens, UniProt P26639); settings: calculated; see Williams, Mirando et al. 2013; cited from earlier work
T1 sequence (P26639 1-723): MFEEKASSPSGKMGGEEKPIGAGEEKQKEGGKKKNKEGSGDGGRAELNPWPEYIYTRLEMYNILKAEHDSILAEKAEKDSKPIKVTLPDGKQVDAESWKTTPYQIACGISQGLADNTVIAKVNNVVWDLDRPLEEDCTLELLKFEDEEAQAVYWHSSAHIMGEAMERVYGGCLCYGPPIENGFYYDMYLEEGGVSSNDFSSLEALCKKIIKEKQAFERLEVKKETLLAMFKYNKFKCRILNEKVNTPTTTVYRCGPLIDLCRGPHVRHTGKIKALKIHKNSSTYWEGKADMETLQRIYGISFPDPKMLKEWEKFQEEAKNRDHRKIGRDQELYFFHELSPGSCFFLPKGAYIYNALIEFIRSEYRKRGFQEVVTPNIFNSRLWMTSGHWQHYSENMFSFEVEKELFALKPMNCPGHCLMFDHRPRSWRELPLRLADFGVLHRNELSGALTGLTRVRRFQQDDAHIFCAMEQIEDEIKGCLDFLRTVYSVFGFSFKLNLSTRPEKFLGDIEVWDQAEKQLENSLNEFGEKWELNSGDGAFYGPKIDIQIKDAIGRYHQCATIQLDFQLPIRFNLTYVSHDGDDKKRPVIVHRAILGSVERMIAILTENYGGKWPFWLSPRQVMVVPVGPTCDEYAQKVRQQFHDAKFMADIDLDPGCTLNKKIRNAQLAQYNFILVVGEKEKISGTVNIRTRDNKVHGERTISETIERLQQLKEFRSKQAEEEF

[2] = system: HUVECs; test: Western blot for unfolded protein response (phospho-eIF2α) and apoptosis (cleaved caspase-3); format: cell-based, human; settings: HUVECs in full serum media
Description: After treatments, cells were harvested into sample buffer containing: 0.2 M Tris-HCL, 4% SDS, 4% β-mercaptoethanol, 40% glycerol, 4 μM pyronin Y. Extracts were sheared through a 24-gauge syringe. Samples were separated by 10% SDS-PAGE and transferred to nitrocellulose membrane and probed with specific antibody as described (Lounsbury, Beddow et al. 1994). Primary antibodies are as follows: Rabbit monoclonal anti-P-eIF2α (1:1000; Cell Signaling Technology, Danvers, Mass.), rabbit monoclonal anti-Cleaved Caspase-3 (1:1000; Cell Signaling Technology, Danvers, Mass.), rabbit polyclonal anti-TARS (1:500; Santa Cruz Biotechnology, Santa Cruz, Calif.). Loading control antibodies were rabbit monoclonal anti-β-actin and anti-β-tubulin (1:1000; Cell Signaling Technology, Danvers, Mass.). Secondary antibodies were HRP-goat-anti-mouse and HRP-goat-anti-rabbit (1:5,000; Jackson Laboratories, Bar Harbor, Me.).

[3] = system: SKOV-3 cells; test: HIF-1α stabilization in hypoxia (Western blot); format: cell-based
Description: After treatments, cells were harvested into sample buffer containing: 0.2 M Tris-HCL, 4% SDS, 4% β-mercaptoethanol, 40% glycerol, 4 μM pyronin Y. Extracts were sheared through a 24-gauge syringe. Samples were separated by 10% SDS-PAGE and transferred to nitrocellulose membrane and probed with rabbit polyclonal anti-TARS (1:500; Santa Cruz Biotechnology, Dallas, Tex.) or monoclonal anti-HIF-1α (BD Transduction Laboratories, [BD Biosciences, San Jose, Calif.]) (Lounsbury, Beddow et al. 1994). Secondary antibodies were HRP-goat-anti-mouse and HRP-goat-anti-rabbit (1:5,000; Jackson Laboratories, Bar Harbor, Me.).

[4] = system: HUVEC; test: Nascent protein synthesis assay (Click-iT metabolic labeling); format: cell-based, human; settings: HUVECs; concentrations below 100 nM
Description: Nascent Protein Synthesis Assay—
Nascent protein synthesis was measured using Invitrogen Click-iT® metabolic labeling reagents [Dieterich, D. C., et al., Nat Protoc 2, 532-40 (2007)]. HUVEC cultures were pre-incubated in methionine-free Dulbecco's Modified Eagle Medium (D-MEM) high glucose (Invitrogen, Life Technologies, Grand Island, N.Y.) supplemented with 10% dialyzed fetal bovine serum (Invitrogen) containing the control or test compounds. Cycloheximide (50 μM) was used as a positive control. After 45 minutes, 25 μM Click-iT® AHA (L-azidohomoalanine) (Invitrogen) was added and cultures were incubated for 3 h. Cells were lysed with 1% SDS in 50 mM Tris-HCl with protease and phosphatase inhibitors: 1 mM […], 20 […], and 4 […]. Extracts were sonicated and protein concentration was determined by Bradford assay. Protein samples were labeled with biotin alkyne (PEG4 carboxamide-propargyl biotin) (Invitrogen) using the Click-iT® Protein Reaction Buffer Kit (Invitrogen) according to manufacturer's instructions. Equal concentrations of protein were run on a 10% SDS-PAGE and transferred to nitrocellulose membrane, incubated with streptavidin-HRP reagent (Pierce Thermo Scientific, Rockford, Ill.) followed by reaction with ECL reagent (Pierce) and exposed on film.

[5] = system: HUVECs; test: Cell viability by Trypan Blue exclusion; format: cell-based, human; settings: concentrations below 100 nM
Description: Cell viability was measured by counting cells in a hemacytometer with Trypan Blue exclusion (Sigma-Aldrich, St. Louis, Mo.) according to manufacturer's instructions. Measurements were normalized to untreated cells.

[6] = system: von Hippel Lindau protein (VHL); test: Co-immunoprecipitation of TARS and VHL from transfected HEK293 cells; format: binding, human; settings: biotinylated TARS construct precipitated with streptavidin beads, HEK cells
Description: Plasmids expressing biotinylatable TARS (pTARS) and myc-tagged VHL (pVHL) were transfected into HEK293 cells, and then extracts were prepared. Biotin-TARS was precipitated using streptavidin-coupled beads. Myc-VHL was precipitated using anti-myc antibodies. Precipitates were separated by SDS-PAGE, transferred and blots probed with anti-TARS antibody or anti-myc (VHL) antibody.

[7] = system: HUVECs; test: VEGF secretion into culture media (ELISA); format: cell-based, human; settings: purified recombinant TARS added to HUVEC media for 24 h
Description: ELISA and Lactate Dehydrogenase Assays—
Culture media supernatants were tested for levels of secreted TARS protein using the Threonyl tRNA Synthetase (TARS) ELISA Kit (USCN Life Science, Wuhan, Hubei, PRC) according to manufacturer's instructions. Cell membrane integrity was confirmed using the lactate dehydrogenase assay CytoTox-ONE™ Homogeneous Membrane Integrity Assay (Promega, Madison, Wis.) according to manufacturer's instructions and reported as percent cytotoxicity relative to a lysis control. Levels of secreted VEGF were measured using the Human VEGF ELISA kit (Thermo Scientific) per manufacturer's instructions.

Chain of von Hippel Lindau protein (VHL) (P40337 54-213 limits assumed): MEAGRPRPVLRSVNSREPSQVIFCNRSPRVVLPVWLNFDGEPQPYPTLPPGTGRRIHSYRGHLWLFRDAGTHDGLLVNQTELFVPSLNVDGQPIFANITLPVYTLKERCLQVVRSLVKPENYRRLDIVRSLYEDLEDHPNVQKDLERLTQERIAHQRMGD

C[C@@H]1C[C@H](C)C[C@H](C)[C@@H](O)CC(=O)O[C@H]([C@@H]2CC[C@H]2C(=O)O)C/C=C/C=C(/C#N)[C@H](O)[C@@H](C)C1 [BC194]
Ki [1]: 4.1 nM | stimulation of unfolded protein response (phospho-eIF2α) and apoptosis (cleaved caspase-3) [2]: high concentrations of BC194 are required | HIF-1α transcription ([3]; SK-OV3 cells responding to hypoxia): no change in HIF-1α transcription | HIF-1α protein stabilization ([3]; hypoxia (2% O2), 6 h): diminished the levels of HIF-1α protein stabilization; also recorded: reduce HIF-1α stabilization | nascent protein synthesis [4]: unaffected; also recorded: lack of effect | cell viability [5]: unaffected; also recorded: lack of effect

B1: TARS: N-terminal His6-tagged human threonyl-tRNA synthetase expressed and purified from E. coli; SEQ ID NO:2 (protein, listed as Homo sapiens)
chain: MFEEKASSPSGKMGGEEKPIGAGEEKQKEGGKKKNKEGSGDGGRAELNPWPEYIYTRLEMYNILKAEHDSILAEKAEKDSKPIKVTLPDGKQVDAESWKTTPYQIACGISQGLADNTVIAKVNNVVWDLDRPLEEDCTLELLKFEDEEAQAVYWHSSAHIMGEAMERVYGGCLCYGPPIENGFYYDMYLEEGGVSSNDFSSLEALCKKIIKEKQAFERLEVKKETLLAMFKYNKFKCRILNEKVNTPTTTVYRCGPLIDLCRGPHVRHTGKIKALKIHKNSSTYWEGKADMETLQRIYGISFPDPKMLKEWEKFQEEAKNRDHRKIGRDQELYFFHELSPGSCFFLPKGAYIYNALIEFIRSEYRKRGFQEVVTPNIFNSRLWMTSGHWQHYSENMFSFEVEKELFALKPMNCPGHCLMFDHRPRSWRELPLRLADFGVLHRNELSGALTGLTRVRRFQQDDAHIFCAMEQIEDEIKGCLDFLRTVYSVFGFSFKLNLSTRPEKFLGDIEVWDQAEKQLENSLNEFGEKWELNSGDGAFYGPKIDIQIKDAIGRYHQCATIQLDFQLPIRFNLTYVSHDGDDKKRPVIVHRAILGSVERMIAILTENYGGKWPFWLSPRQVMVVPVGPTCDEYAQKVRQQFHDAKFMADIDLDPGCTLNKKIRNAQLAQYNFILVVGEKEKISGTVNIRTRDNKVHGERTISETIERLQQLKEFRSKQAEEEF
modifications: N-terminal His6 tag
co-precipitation of VHL [6]: the VHL protein is co-precipitated | secretion of VEGF [7]: did not induce secretion of VEGF; also recorded: does not induce VEGF secretion

Reference: patent US10125358B2, “Methods and compounds for increasing threonyl-tRNA synthetase activity” (UNIVERSITY OF VERMONT AND STATE AGRICULTURAL COLLEGE, priority 2012, dated 2018)
